The target in assay [1] is T1, CBX8 binding to chromatin (Homo sapiens, UniProt Q9HC52).
T1 construct: endogenous in cells; host or cells: Hs68 fibroblasts (A16); HEK293T (A19); K562 (A23)
T1 sequence (Q9HC52 1-389): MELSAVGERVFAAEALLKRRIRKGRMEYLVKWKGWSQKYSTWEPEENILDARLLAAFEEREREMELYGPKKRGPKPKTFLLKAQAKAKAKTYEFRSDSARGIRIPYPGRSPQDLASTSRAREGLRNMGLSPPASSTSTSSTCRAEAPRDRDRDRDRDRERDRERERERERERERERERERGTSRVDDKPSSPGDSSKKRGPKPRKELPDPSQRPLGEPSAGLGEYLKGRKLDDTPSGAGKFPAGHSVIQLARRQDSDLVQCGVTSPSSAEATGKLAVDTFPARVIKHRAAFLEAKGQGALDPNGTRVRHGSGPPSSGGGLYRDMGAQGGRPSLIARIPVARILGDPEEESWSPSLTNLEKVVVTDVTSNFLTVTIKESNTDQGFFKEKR
The assay can be described thus: ChIP-qPCR in Hs68 fibroblast cells. The assay is classed as cell-based. As to conditions: 100 μM, 4 h. The procedure:
ChIP: Hs68 cells were seeded at 4×10^6 in a 10 cm cell culture plates 16 hours prior to treatment. […] ChIP was performed as described in Connelly et al., 2018. Birefly, cells were washed with PBS and fixed on the plate with CiA Fix buffer (50 mM HEPES, pH 8.0, 1 mM EDTA, 0.5 mM ETGA, 100 mM NaCl) and 1% formaldehyde for 10 min at room temperature. Crosslinking was quenched with 0.125 M glycine for 5 min at 4° C. Cells were washed once with PBS and lifted off the plate then resuspended in CiA NP Rinse buffer 1 (50 mM HEPES pH 8.0, 140 mM NaCl, 1 mM EDTA, 10% glycerol, 0.5% NP-40, 0.25% Triton X) for 10 min. Cells were pelleted at 1200×g for 5 min at 4° C. The supernatant was removed, and the cells were resuspended in CiA NP rinse buffer 2 (10 mM Tris pH 8.0, 1 mM EDTA, 0.5 mM EGTA, 200 mM NaCl). Cells were collected by centrifugation, 1200×g for 5 min. Supernatant was removed and the cells were washed twice with shearing buffer (0.1% SDS, 1 mM EDTA, 10 mM Tris HCl, pH 8.0). Cells were resuspended in shearing buffer and sonicated for 7 min with the probe (Branson). Lysate was centrifuged at 21,000×g for 15 min to remove debris. Supernatant was collected and pre-cleared overnight with Protein A/G magnetic beads (Pierce). […]
qPCR: qPCR was performed on the isolated ChIP DNA using SYBR master mix (Thermo) and run on the BioRad CFX thermo cycler. […] Enrichment was determined by percent input. […]

Assay [2] addresses T2, CBX2 and H3K27me3 at KLK3/TMPRSS2 enhancers and promoters (Homo sapiens, UniProt Q14781).
T2 construct: endogenous in cells
The assay can be described thus: ChIP-qPCR in LNCaP_NED cells. The class given is cell-based. As to conditions: 10 μM, 4 hours. The text has this:
FIG. 12A). Neuroendocrine differentiation (NED) of prostate cancer induced by androgen deprivation. Representative pictures of LNCaP cells treated with normal media or charcoal-stripped serum (CSS) media for 6 days to induce neuroendocrine differentiation (LNCaP_NED). FIG. 12B). Transcriptional fold changes of KLK3/TMPRSS2/ENO2/CHGA were quantified normalized to control gene YWHAZ upon CSS media treatment for 6 or 9 days. FIG. 12C). Western blotting of CBX paralogs in LNCaP and LNCaP_NED cells generated from 14-day CSS treatment. FIG. 12D). Cell proliferation of LNCaP_NED following 5 days incubation with 2 or 10 μM SW2_152F. DMSO was used as negative control. FIG. 12E). LNCaP_NED cells were treated with 10 μM SW2_152F for 24 h-96 h. Cell morphology pictures were captured starting from 24 h. Average cell size were plotted at 24 h or 48 h for both DMSO group and compound treated group. FIG. 12F). LNCaP_NED cells were treated with 10 μM or 50 μM SW2_152F for 48 hours. […] Binding of H3K27me3 and CBX2 at specific genomic sites (KLK3/TMPRSS2, e: enhancer, p: promoter) were evaluated using chromatin immunoprecipitation-qPCR. For all experiments in the figure, error bars represent SEM n=3 biological replicates, p-values were calculated using two-tailed Student's t-test, *=p<0.05, **=p<0.01, ***=p<0.001, ****=p<0.0001. […]

The structures appear in SMILES notation. Square brackets hold non-standard residues; d marks the D form. Peptide text beside a SMILES is read from it. * marks the point of attachment. Tyr(3-Cl) = N[C@@H](Cc1ccc(O)c(Cl)c1)C(=O)O; Benzoyl(3,5-Cl2) = O=C(c1cc(Cl)cc(Cl)c1)*; Lys(Et2) = CCN(CC)CCCC[C@H](N)C(=O)O; Gly(cPent) = N[C@H](C(=O)O)C1CCCC1; NH(propargyl) = C#CCN*

T2 sequence (Q14781 whole entry): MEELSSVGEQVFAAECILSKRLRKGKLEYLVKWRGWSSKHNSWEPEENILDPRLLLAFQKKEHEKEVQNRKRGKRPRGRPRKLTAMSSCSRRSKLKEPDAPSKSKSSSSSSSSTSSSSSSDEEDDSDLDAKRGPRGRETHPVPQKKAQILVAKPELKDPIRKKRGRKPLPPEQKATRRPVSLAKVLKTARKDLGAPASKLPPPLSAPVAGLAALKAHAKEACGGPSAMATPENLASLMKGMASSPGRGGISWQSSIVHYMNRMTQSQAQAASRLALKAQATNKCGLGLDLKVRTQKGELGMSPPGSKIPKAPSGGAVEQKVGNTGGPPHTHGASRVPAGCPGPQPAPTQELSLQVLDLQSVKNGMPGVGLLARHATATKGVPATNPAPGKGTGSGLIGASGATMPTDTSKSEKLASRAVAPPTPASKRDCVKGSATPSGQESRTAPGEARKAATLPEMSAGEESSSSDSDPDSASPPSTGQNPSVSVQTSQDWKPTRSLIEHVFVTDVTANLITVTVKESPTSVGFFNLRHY

As to `C#CCNC(=O)[C@H](CO)NC(=O)[C@H](CCCCN(CC)CC)NC(=O)[C@@H](NC(=O)[C@@H](NC(=O)[C@H](Cc1ccc(O)c(Cl)c1)NC(=O)c1cc(Cl)cc(Cl)c1)C1CCCC1)[C@@H](C)CC` [SW2_152F] ({Benzoyl(3,5-Cl2)}-[Tyr(3-Cl)][Gly(cPent)]I[Lys(Et2)]S-{NH(propargyl)}), the “CBX8 binding at target loci, ChIP-qPCR” value in assay [1] is listed as “significant reduction of CBX8 binding”. Also, in assay [2], the “CBX2 binding at AR target genes, ChIP-qPCR” value is “abrogates CBX2 binding at the KLK3 (PSA)/TMPRSS2 enhancers and promoters”; the “H3K27me3 enrichment at AR target genes, ChIP-qPCR” value was “reduces H3K27me3 enrichment specifically at these sites”.

The record behind these values is US20210284691A1, “CBX8 CHROMDOMAIN INHIBITORS AND THE USES THEREOF” (Purdue Research Foundation, priority 2019, published 2021).
